In US6863897B2, “Stabilization of resorcinol derivatives in cosmetic compositions” (Unilever Home & Personal Care USA, division of Conopco, Inc., priority 2002, dated 2005):

Assay: Storage color stability of resorcinol formulations with and without micronized TiO2 (chromameter CIE L*)
Assay type: physicochemical
Design: key: difference in CIE L* (lightness) values, with TiO2 minus without
Conditions: 45° C. oven, glass amber jars, 0.2% micronized TiO2 (MT-100Z), resorcinol content 2.17 milli-M
Procedure: In this experiment, the storage stability in terms of color change of resorcinol derivatives time was measured with and without the presence of metal oxides.
The color stabilization of formulations of containing 4-substituted resorcinol derivatives by TiO2 was assessed by measuring the chromameter L* value (Luminance, or lightness) of the different formulations over time. A decrease in L* over time represents a darkening of the formulations as color develops from the white starting formulation due to decomposition of the resorcinol derivative. In Table 5 below, the ΔL value between formulations with and without TiO2 indicates the magnitude of color difference between the comparative samples. […] Thus, one can see that TiO2 has a large color-stabilizing effect, particularly on the formulations containing 4-substituted resorcinols.
The cosmetic compositions of Examples 5 to 8 in the Table above were stored and tested for stability in terms of discoloration. The resorcinol and 4-substituted resorcinol derivatives in these examples had equal molar content, i.e., 2.17 milli-M. A comparative composition, example 8, was made by eliminating resorcinol or its derivatives from the compositions of examples 5 to 8. The product formulations were stored for 56 days in glass amber jars of 120 ml volume in an oven at 45° C.
Procedure for Measuring CIE L*a*b* Color of Cosmetic Formulations
A film is created by applying a composition evenly to an UV-Transparent quartz plate (4″×4⅛″×⅛″) with a spatula. An 8-path wet film applicator from Paul Gardner Company, Inc. with a 3″ path width is used. The applicator is manually drawn across the plate for a […] thickness.
The plate is flipped over with the thin film facing the bench top and suspended 1½″ above a black benchtop (L*a*b* reading of the benchtop is L*=27.5, a*=0.5, b*=−0.6). Then a hand held Minolta CR10 chromameter is calibrated on a white Calibration Color tile (L 98.2, a 0.2, b 1.2). The chromameter is then placed on the top of the plate and three readings of the Commission Internationale de l'Eclairage (CIE) L*a*b* color system are taken. • L*=Black to white (luminance) from 0 to 100 [L*=0 represents Black] • a*=green to red from −60 to +60 • b*=blue to yellow from −60 to +60
The formulation thin film L* values were used in the present analysis. For each data collection the average value for the three readings was used at 0, 14, 28, and 56 days.

Row | Base-adjusted ΔL with TiO2 - ΔL without TiO2 for the resorcinol formulations (storage time 0 day) | Base-adjusted ΔL with TiO2 - ΔL without TiO2 for the resorcinol formulations (storage time 14 days) | Base-adjusted ΔL with TiO2 - ΔL without TiO2 for the resorcinol formulations (storage time 28 days) | Base-adjusted ΔL with TiO2 - ΔL without TiO2 for the resorcinol formulations (storage time 56 days) | SMILES
1 | 0 | 0.9 | −2 | 1.1 | Oc1cccc(O)c1 [Resorcinol]
2 | 0 | 12.0 | 4.6 | 7.6 | CCc1ccc(O)cc1O [4-Ethyl resorcinol, 4-ethyl resorcinol]
3 | 0 | 7.7 | 0.1 | 3.7 | CCCCCCc1ccc(O)cc1O [4-Hexyl resorcinol, 4-hexyl resorcinol]
